Reference: US8293786B2 (Alltranz Inc., priority 2007, dated 2012)

What was measured:
[1] = Plasma stability of cannabidiol prodrugs (bioconversion to parent drug); type: in vitro ADME; settings: for % mono-prodrug at time (h) / % Di-prodrug at time (h): di-prodrug in plasma; for % mono-prodrug at time (h): mono-prodrug formed; for % Prodrug at time (h): mono-prodrug in plasma
Description: An approximated 1 mg/mL stock solution of each prodrug was prepared in 100 μL of ethanol and 900 μL of acetonitrile. Ten (10) μL of stock was spiked into 1 mL of plasma and vortexed. The samples were kept sealed in an amber vial and samples were obtained to analyze for bioconversion to parent drug.

human abdominal skin = assay: In vitro human skin permeation and skin disposition, flow-through diffusion cells (Examples 2, 2A, 2B); type: in vitro ADME; settings: for Flux enhancement: total cannabidiol versus cannabidiol
In short: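 Dermatomed (~200 μm) frozen human abdominal skin was mounted in flow-through cells at 32° C (0.95 cm^2), stratum corneum to donor. Donors were 0.10 mL 45:4:1 PG:H2O:IPM solution or 50 μL gel; receiver was 40% PEG 400 (HEPES-Hanks pH 7.4 or aqueous) with gentamicin at 0.8 mL/h. Samples were taken every 3 h for 24-42 h; skin accumulation was expressed as μmol/g wet tissue.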

[2] = Table 18, 90:8:2 PG:H2O:IPM donor solution, 40% aqueous PEG 400 receiver fluid, CBD from applied prodrug
[3] = Table 18, 90:8:2 PG:H2O:IPM donor solution, 40% aqueous PEG 400 receiver fluid, mono-prodrug from applied di-prodrug
[4] = Table 18, 90:8:2 PG:H2O:IPM donor solution, 40% aqueous PEG 400 receiver fluid, prodrug applied, as total cannabidiol equivalents
[5] = Table 23, gel formulation, 40% aqueous PEG 400 receiver fluid, CBD from applied prodrug
[6] = Table 23, gel formulation, 40% aqueous PEG 400 receiver fluid, as applied compound (CBD or intact prodrug)
[7] = Table 23, gel formulation, 40% aqueous PEG 400 receiver fluid, prodrug applied, as total cannabidiol equivalents
[8] = Table 16, 90:8:2 PG:H2O:IPM donor solution, 60/40 Hanks'/PEG 400 receiver fluid, CBD from applied prodrug
[9] = Table 16, 90:8:2 PG:H2O:IPM donor solution, 60/40 Hanks'/PEG 400 receiver fluid, as applied compound (CBD or intact prodrug)
[10] = Table 16, 90:8:2 PG:H2O:IPM donor solution, 60/40 Hanks'/PEG 400 receiver fluid, prodrug applied, as total cannabidiol equivalents
[11] = Table 16, 90:8:2 PG:H2O:IPM donor solution, 60/40 Hanks'/PEG 400 receiver fluid

Compound: C=C(C)[C@@H]1CCC(C)=C[C@H]1c1c(OC=O)cc(CCCCC)cc1OC=O [ALL00145, CBD Diformate]
- % mono-prodrug at time (h) ([1]; Table 20, 0 h): 40%
- % mono-prodrug at time (h) ([1]; Table 20, 0.5 h): 44%
- % mono-prodrug at time (h) ([1]; Table 20, 22 h): 23%
- % mono-prodrug at time (h) ([1]; Table 20, 24 h): 11%
- % Di-prodrug at time (h) ([1]; Table 20, 0 h): 60%
- % Di-prodrug at time (h) ([1]; Table 20, 0.5 h): 45%
- % Di-prodrug at time (h) ([1]; Table 20, 22 h): 37%
- % Di-prodrug at time (h) ([1]; Table 20, 24 h): 13%
- 30 h cumulative amt (human abdominal skin; [2]): 17.2 ± 4.5 nmol
- 30 h skin conc (human abdominal skin; [2]): 8.8 ± 7.0 µmol/g
- Flux (human abdominal skin; [2]): 1.4 ± 0.1 nmol/cm^2/h
- Lag time (human abdominal skin; [2]): 17.4 ± 3.3 h
- 30 h skin conc (human abdominal skin; Table 18, 90:8:2 PG:H2O:IPM donor solution, 40% aqueous PEG 400 receiver fluid, as applied compound (CBD or intact prodrug)): 3.8 ± 2.1 µmol/g
- 30 h cumulative amt (human abdominal skin; [3]): 17.5 ± 6.1 nmol
- 30 h skin conc (human abdominal skin; [3]): 23.5 ± 19.3 µmol/g
- Flux (human abdominal skin; [3]): 1.5 ± 0.6 nmol/cm^2/h
- Lag time (human abdominal skin; [3]): 19.0 ± 1.9 h
- 30 h cumulative amt (human abdominal skin; [4]): 34.7 ± 7.0 nmol
- 30 h skin conc (human abdominal skin; [4]): 36.1 ± 28.2 µmol/g
- Flux (human abdominal skin; [4]): 2.9 ± 0.7 nmol/cm^2/h
- Lag time (human abdominal skin; [4]): 17.2 ± 2.5 h
- Flux enhancement (human abdominal skin; Table 18, 90:8:2 PG:H2O:IPM donor solution, 40% aqueous PEG 400 receiver fluid): 0.35
- detected in the skin as (human abdominal skin; in donor solution): prodrug, mono-substituted prodrug, ALL00146, and cannabidiol
- flux compared to cannabidiol (human abdominal skin; in donor solution): did not increase the flux
- lag time compared to cannabidiol (human abdominal skin; in donor solution): wasn't decreased
- share permeated through the skin as cannabidiol (human abdominal skin; in donor solution): approximately 50%
- share permeated through the skin as mono-substituted prodrug (human abdominal skin; in donor solution): approximately 50%
- total skin concentrations compared to cannabidiol (human abdominal skin; in donor solution): higher

Compound: C=C(C)[C@@H]1CCC(C)=C[C@H]1c1c(O)cc(CCCCC)cc1OC(=O)CO [ALL00149, CBD Glycolate]
- % Prodrug at time (h) ([1]; Table 24, 0 h): 100%
- % Prodrug at time (h) ([1]; Table 24, 0.5 h): 31%
- % Prodrug at time (h) ([1]; Table 24, 1 h): 12%
- % Prodrug at time (h) ([1]; Table 24, 2 h): 0%
- 24 h cumulative amt (human abdominal skin; [5]): 1.2 nmol
- 24 h skin conc (human abdominal skin; [5]): 0.9 ± 0.0 µmol/g
- 24 h cumulative amt (human abdominal skin; [6]): 5.8 nmol
- 24 h skin conc (human abdominal skin; [6]): 46.0 ± 11.5 µmol/g
- Flux (human abdominal skin; [6]): 0.29 nmol/cm^2/h
- Lag time (human abdominal skin; [6]): 6.4 h
- 24 h cumulative amt (human abdominal skin; [7]): 6.9 nmol
- 24 h skin conc (human abdominal skin; [7]): 46.3 ± 11.8 µmol/g
- Flux (human abdominal skin; [7]): 0.40 nmol/cm^2/h
- Lag time (human abdominal skin; [7]): 6.2 h
- Flux enhancement (human abdominal skin; Table 23, gel formulation, 40% aqueous PEG 400 receiver fluid): 1.4
- detected in the skin as (human abdominal skin; in gel formulation): primarily ALL00149 with a trace amount of cannabidiol
- lag time compared to cannabidiol (human abdominal skin; in gel formulation): lower
- permeated through the skin as (human abdominal skin; in gel formulation): primarily ALL00149 with a trace amount of cannabidiol
- total skin concentrations compared to cannabidiol (human abdominal skin; in gel formulation): higher
- increase of the flux compared to cannabidiol (human abdominal skin; in gel formulation, unit not given): 1.4

Compound: C=C(C)[C@@H]1CCC(C)=C[C@H]1c1c(OC(C)=O)cc(CCCCC)cc1OC(C)=O [ALL00142, CBD Diacetate]
- % mono-prodrug at time (h) ([1]; Table 20, 1 h): 0%
- % mono-prodrug at time (h) ([1]; Table 20, 3 h): 0%
- % mono-prodrug at time (h) ([1]; Table 20, 24 h): 0%
- % Di-prodrug at time (h) ([1]; Table 20, 0 h): 100%
- % Di-prodrug at time (h) ([1]; Table 20, 1 h): 98%
- % Di-prodrug at time (h) ([1]; Table 20, 3 h): 90%
- % Di-prodrug at time (h) ([1]; Table 20, 24 h): 10%
- 30 h skin conc (human abdominal skin; Table 17, 90:8:2 PG:H2O:IPM donor solution, 40% aqueous PEG 400 receiver fluid, as applied compound (CBD or intact prodrug)): 5.5 ± 0.3 µmol/g
- 30 h skin conc (human abdominal skin; Table 17, 90:8:2 PG:H2O:IPM donor solution, 40% aqueous PEG 400 receiver fluid, prodrug applied, as total cannabidiol equivalents): 5.5 ± 0.3 µmol/g
- detected in the skin as (human abdominal skin; in donor solution): only as intact prodrug
- permeated through the skin as (human abdominal skin; in donor solution): did not permeate through the skin or was below detection in the receiver samples
- total skin concentrations compared to cannabidiol (human abdominal skin; in donor solution): not higher

Compound: C=C(C)C1CCC(C)=CC1c1c(O)cc(CCCCC)cc1OC(=O)COCCOCCOC (stereo not drawn) [ALL00140, CBD 2-[2-(2-methoxyethoxy)ethoxy]acetate]
- % Prodrug at time (h) ([1]; Table 20, 0 h): 100%
- % Prodrug at time (h) ([1]; Table 20, 2 h): 0%
- % Prodrug at time (h) ([1]; Table 20, 20 h): 0%
- % Prodrug at time (h) ([1]; Table 20, 24 h): 0%
- 42 h cumulative amt (human abdominal skin; [8]): 24.1 ± 3.3 nmol
- 42 h skin conc (human abdominal skin; [8]): 0.5 ± 0.3 µmol/g
- Flux (human abdominal skin; [8]): 0.9 ± 0.1 nmol/cm^2/h
- Lag time (human abdominal skin; [8]): 9.0 ± 2.7 h
- 42 h cumulative amt (human abdominal skin; [9]): 34.3 ± 15.5 nmol
- 42 h skin conc (human abdominal skin; [9]): 12.7 ± 6.6 µmol/g
- Flux (human abdominal skin; [9]): 1.3 ± 0.5 nmol/cm^2/h
- Lag time (human abdominal skin; [9]): 12.6 ± 2.5 h
- 42 h cumulative amt (human abdominal skin; [10]): 58.1 ± 15.5 nmol
- 42 h skin conc (human abdominal skin; [10]): 13.2 ± 6.9 µmol/g
- Flux (human abdominal skin; [10]): 2.2 ± 0.5 nmol/cm^2/h
- Lag time (human abdominal skin; [10]): 11.2 ± 2.2 h
- Flux enhancement (human abdominal skin; [11]): 0.33
- detected in the skin as (human abdominal skin; in donor solution): mostly as prodrug in the skin with small amounts of cannabidiol
- flux compared to cannabidiol (human abdominal skin; in donor solution): did not increase the flux
- lag time compared to cannabidiol (human abdominal skin; in donor solution): slightly decreased
- permeated through the skin as (human abdominal skin; in donor solution): intact prodrug and cannabidiol
- total skin concentrations compared to cannabidiol (human abdominal skin; in donor solution): not higher

Compound: C=C(C)[C@@H]1CCC(C)=C[C@H]1c1c(O)cc(CCCCC)cc1OC(=O)COCCOCCOCCOC [ALL00131, CBD 3,6,9,12-tetraoxatridecanoate]
- % Prodrug at time (h) ([1]; Table 20, 0 h): 100%
- % Prodrug at time (h) ([1]; Table 20, 1 h): 64%
- % Prodrug at time (h) ([1]; Table 20, 2 h): 42%
- % Prodrug at time (h) ([1]; Table 20, 4 h): 24%
- % Prodrug at time (h) ([1]; Table 20, 6 h): 14%
- % Prodrug at time (h) ([1]; Table 20, 24 h): 14%
- 42 h cumulative amt (human abdominal skin; [8]): 15.4 ± 2.0 nmol
- Flux (human abdominal skin; [8]): 0.6 ± 0.1 nmol/cm^2/h
- Lag time (human abdominal skin; [8]): 9.6 ± 3.0 h
- 42 h cumulative amt (human abdominal skin; [9]): 54.9 ± 22.1 nmol
- 42 h skin conc (human abdominal skin; [9]): 12.5 ± 5.5 µmol/g
- Flux (human abdominal skin; [9]): 2.3 ± 0.8 nmol/cm^2/h
- Lag time (human abdominal skin; [9]): 13.7 ± 1.9 h
- 42 h cumulative amt (human abdominal skin; [10]): 70.3 ± 20.4 nmol
- 42 h skin conc (human abdominal skin; [10]): 12.5 ± 5.5 µmol/g
- Flux (human abdominal skin; [10]): 2.8 ± 0.7 nmol/cm^2/h
- Lag time (human abdominal skin; [10]): 12.9 ± 1.6 h
- Flux enhancement (human abdominal skin; [11]): 0.43
- detected in the skin as (human abdominal skin; in donor solution): only as prodrug
- flux compared to cannabidiol (human abdominal skin; in donor solution): did not increase the flux
- lag time compared to cannabidiol (human abdominal skin; in donor solution): similar
- permeated through the skin as (human abdominal skin; in donor solution): intact prodrug and cannabidiol
- total skin concentrations compared to cannabidiol (human abdominal skin; in donor solution): not higher
